The record followed here is US20250195530A1, “POLQ INHIBITORS” (ASTRAZENECA AB, priority 2022, published 2025).

For test [1], the system named is DLD-1 BRCA2−/− cells. In words: Homologous recombination synthetic lethal inhibition of proliferation, DLD-1 BRCA2-/- (Cell Titre Glo 3D). Particulars: for IC50: Homo sapiens. Type of test: cell-based. Put shortly: (§1)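 Cells are seeded in RPMI 1640 (phenol red free, 10% FBS, GlutaMAX) onto pre-dosed compound (10 μM to 0.51 nM, three-fold). Plates are incubated at 37 °C, and medium plus compound are refreshed on day 6. Viability is read by CellTiter-Glo 3D at day 7 (DLD-1) or day 12 (DLD-1 BRCA2−/−), and the IC50 is fitted.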

The subject of test [2] is DLD-1 cells. Briefly: Inhibition of proliferation, DLD-1 BRCA2 wt control (Cell Titre Glo 3D). The class given is cell-based. Particulars: for IC50: Homo sapiens. Put shortly: as §1
Where [3] appears, read: DLD-1, 288 h, DLD-1 BRCA2−/− cells, 12 days, read-out: POLQ PD Prolif Lumin BRCA2 −/− mean pIC50 (converted).
Setting [4] is: DLD-1, 168 h, DLD-1 BRCA2 wt cells, 7 days, read-out: POLQ PD Prolif Lumin DLD1 mean pIC50 (converted).
[5] abbreviates: DLD-1, DLD-1 BRCA2-/- proliferation, column head only partly shown, read-out: POLQ PD Prolif Lumin (converted).
[6] abbreviates: DLD-1, DLD-1 BRCA2 wt control proliferation, column head only partly shown, read-out: POLQ PD Prolif Lumin (converted).
The mark [7] stands for this setting: DLD-1, DLD-1 BRCA2 −/−, mean, read-out: POLQ PD Prolif Lumin BRCA2 −/− mean pIC50 (converted).
Where [8] appears, read: DLD-1, DLD1 BRCA2 wt, mean, read-out: POLQ PD Prolif Lumin DLD1 mean pIC50 (converted).
Setting [9] is: DLD-1, first proliferation column (c5), taken as DLD-1 BRCA2-/-, read-out: POLQ PD Prolif Lumin (converted).
Setting [10] is: DLD-1, second proliferation column (c6), taken as DLD-1 BRCA2 wt, read-out: POLQ PD Prolif Lumin (converted).
[11] abbreviates: DLD-1, proliferation, luminescence, taken as DLD-1 BRCA2-/-, read-out: POLQ PD Prolif Lumin (converted).
Setting [12] is: DLD-1, proliferation, luminescence, second Prolif column (c6), taken as DLD-1 BRCA2 wt control, read-out: POLQ PD Prolif Lumin (converted).
Setting [13] is: DLD-1, first proliferation column, DLD-1 BRCA2-/-, read-out: POLQ PD Prolif Lumin (converted).
The mark [14] stands for this setting: DLD-1, second proliferation column, DLD-1 BRCA2 wt control, read-out: POLQ PD Prolif Lumin (converted).

Where two headings read alike, the source gives them in different places. A value given as a limit tells only on which side of the number the result lay.

In the case of `Cc1cnc(Cn2c(-c3ccc(CC(N)=O)cc3Cl)nc3c(OC4(C)CC4)ncnc32)s1` [Example T4, 2-(3-chloro-4-(6-(1-methylcyclopropoxy)-9-((5-methylthiazol-2-yl)methyl)-9H-purin-8-yl)phenyl)acetamide], the IC50 in test [1] (DLD-1, DLD-1 BRCA2 −/− cells, mean, read-out: POLQ PD Prolif Lumin BRCA2 −/− mean pIC50 (converted)) is 1260 nM; in test [2] (DLD-1, DLD1 BRCA2 wt cells, mean, read-out: POLQ PD Prolif Lumin DLD1 mean PIC50 (converted)), greater than 10000 nM.

For `Cc1cc(O[C@H]2CCCNC2)ncc1-c1nc2c(OC3(C)CC3)ncnc2n1Cc1ccccc1` [Example G13, (S)-9-benzyl-8-(4-methyl-6-(piperidin-3-yloxy)pyridin-3-yl)-6-(1-methylcyclopropoxy)-9H-purine], the figures for the IC50 in test [1] (setting [3]) and in test [2] (setting [4]) were 501 nM and greater than 10000 nM, respectively.

Regarding `Cc1ccnc(Cn2c(-c3ccc(OCCCS(C)(=O)=O)cc3Cl)nc3c(OC4(C)CC4)ncnc32)c1` [Example T234, 8-(2-chloro-4-(3-(methylsulfonyl)propoxy)phenyl)-6-(1-methylcyclopropoxy)-9-((4-methylpyridin-2-yl)methyl)-9H-purine], the IC50 was 200 nM in test [1] (setting [5]) and greater than 10000 nM in test [2] (setting [6]).

Take `CC1(Oc2ncnc3c2nc(-c2cccc(OCCC(=O)O)c2Cl)n3Cc2cc(Cl)ccc2C#N)CC1` [Example U96, 3-(2-chloro-3-(9-(5-chloro-2-cyanobenzyl)-6-(1-methylcyclopropoxy)-9H-purin-8-yl)phenoxy)propanoic acid]: the IC50 was 10 nM in test [1] (setting [7]) and greater than 10000 nM in test [2] (setting [8]).

For the compound `CC1(Oc2ncnc3c2nc(-c2ccc(OCC(=O)N4CCNCC4)cc2Cl)n3Cc2ccccc2)CC1` [Example C8, 2-(4-(9-benzyl-6-(1-methylcyclopropoxy)-9H-purin-8-yl)-3-chloro-phenoxy)-1-(piperazin-1-yl)ethan-1-one], the IC50 in test [1] (setting [3]) was 316 nM; in test [2] (setting [4]), 6310 nM.

With `C[C@@H]1CNCCN1CCOc1ccc(-c2nc3c(OC4(C)CC4)ncnc3n2Cc2ccccc2)c(Cl)c1` [Example R11, (R)-9-benzyl-8-(2-chloro-4-(2-(2-methylpiperazin-1-yl)ethoxy)phenyl)-6-(1-methylcyclopropoxy)-9H-purine], the IC50 in test [1] (setting [3]) was 100 nM; in test [2] (setting [4]) it was 2510 nM.

Consider `Cc1ccnc(Cn2c(-c3ccc(OCCN(C)C)cc3Cl)nc3c(OC4(C)CC4)ncnc32)c1` [Example 25, 2-(3-Chloro-4-(6-(1-methylcyclopropoxy)-9-((4-methylpyridin-2-yl)methyl)-9H-purin-8-yl)phenoxy)-N,N-dimethylethan-1-amine], for which the IC50 was 100 nM in test [1] (setting [3]) and greater than 10000 nM in test [2] (setting [4]).

Turning to `CN(C)[C@@H]1CCN(c2ccc(-c3nc4c(OC5(C)CC5)ncnc4n3Cc3ccccc3)c(Cl)c2)C1` [Example C4, (R)-1-(4-(9-benzyl-6-(1-methylcyclopropoxy)-9H-purin-8-yl)-3-chlorophenyl)-N,N-dimethylpyrrolidin-3-amine], the IC50 is 200 nM in test [1] (setting [3]) and 2510 nM in test [2] (setting [4]).

In the case of `CC1(Oc2ncnc3c2nc(-c2ccc(C(=O)N4CCNCC4)cc2Cl)n3Cc2ccccc2)CC1` [Example N3, (4-(9-benzyl-6-(1-methylcyclopropoxy)-9H-purin-8-yl)-3-chlorophenyl)(piperazin-1-yl)methanone], the results for the IC50 in test [1] (setting [3]) and in test [2] (setting [4]) were 794 nM and greater than 10000 nM, respectively.

Consider `CC1(Oc2ncnc3c2nc(-c2ccc(OCCN4CCNCC4)cc2Cl)n3Cc2ccnc(Cl)c2)CC1` [Example T378, 8-(2-chloro-4-(2-(piperazin-1-yl)ethoxy)phenyl)-9-((2-chloropyridin-4-yl)methyl)-6-(1-methylcyclopropoxy)-9H-purine], for which the IC50 in test [1] (setting [9]) was 1580 nM; in test [2] (setting [10]), greater than 10000 nM.

As to `COc1ccc(F)cc1Cn1c(-c2cccc(OCC(C)CC(=O)O)c2Cl)nc2c(OC3(C)CC3)ncnc21` (single isomer, unassigned) [Example U77, 4-(2-chloro-3-(9-(5-fluoro-2-methoxybenzyl)-6-(1-methylcyclopropoxy)-9H-purin-8-yl)phenoxy)-3-methylbutanoic acid], the results for the IC50 in test [1] (setting [7]) and in test [2] (setting [8]) were 7.94 nM and greater than 10000 nM, respectively.

For `Cc1ccc(F)c(Cn2c(-c3ccc(OCCC(C)C(=O)O)cc3Cl)nc3c(OC4(C)CC4)ncnc32)c1` (racemic) [Example T417, 4-(3-chloro-4-(9-(2-fluoro-5-methylbenzyl)-6-(1-methylcyclopropoxy)-9H-purin-8-yl)phenoxy)-2-methylbutanoic acid], the figures for the IC50 in test [1] (setting [11]) and in test [2] (setting [12]) were 50.1 nM and greater than 10000 nM, respectively.

For `Cc1ccnc(Cn2c(-c3ccc(CCN4CC(O)C4)cc3Cl)nc3c(OC4(C)CC4)ncnc32)c1` [Example T355, 1-(3-chloro-4-(6-(1-methylcyclopropoxy)-9-((4-methylpyridin-2-yl)methyl)-9H-purin-8-yl)phenethyl)azetidin-3-ol], the figures for the IC50 in test [1] (setting [9]) and in test [2] (setting [10]) were 631 nM and greater than 10000 nM, respectively.

In the case of `CC(CCOc1ccc(-c2nc3c(OC4(C)CC4)ncnc3n2Cc2cccc(C#N)c2)c(Cl)c1)C(=O)O` (racemic) [Example T399, 4-(3-chloro-4-(9-(3-cyanobenzyl)-6-(1-methylcyclopropoxy)-9H-purin-8-yl)phenoxy)-2-methylbutanoic acid], the figures for the IC50 in test [1] (setting [11]) and in test [2] (setting [12]) were 316 nM and greater than 10000 nM, respectively.

As for `Cc1ccnc(Cn2c(-c3ccc(C(=O)N4CC[C@H](N(C)C)C4)cc3Cl)nc3c(OC4(C)CC4)ncnc32)c1` [Example T588, (S)-(3-chloro-4-(6-(1-methylcyclopropoxy)-9-((4-methylpyridin-2-yl)methyl)-9H-purin-8-yl)phenyl)(3-(dimethylamino)pyrrolidin-1-yl)methanone], the IC50 in test [1] (setting [13]) was 1260 nM; in test [2] (setting [14]), greater than 10000 nM.

On to `Cc1cnc(Cn2c(-c3ccc(OCCN4CCNCC4)cc3Cl)nc3c(OC4(C)CC4)ncnc32)cc1C` [Example T596, 8-(2-chloro-4-(2-(piperazin-1-yl)ethoxy)phenyl)-9-((4,5-dimethylpyridin-2-yl)methyl)-6-(1-methylcyclopropoxy)-9H-purine], for which the IC50 in test [1] (setting [13]) was 5010 nM; in test [2] (setting [14]), greater than 10000 nM.

As for `CC1(Oc2ncnc3c2nc(-c2ccc(OCCN4CC5(CC(O)C5)C4)cc2Cl)n3Cc2cc(Cl)ccn2)CC1` [Example R1, 2-(2-(3-chloro-4-(9-((4-chloropyridin-2-yl)methyl)-6-(1-methylcyclopropoxy)-9H-purin-8-yl)phenoxy)ethyl)-2-azaspiro[3.3]heptan-6-ol], the IC50 in test [1] (setting [3]) is 126 nM; in test [2] (setting [4]), greater than 10000 nM.

`CC(C)Oc1ccc2c(c1)nc(-c1ccc(OCCC3CCCN3C)cc1Cl)n2Cc1ccccc1` (single isomer, unassigned) [Example A9, 1-benzyl-2-(2-chloro-4-(2-(1-methylpyrrolidin-2-yl)ethoxy)phenyl)-5-isopropoxy-1H-benzo[d]imidazole]: the “POLQ PD Prolif Lumin BRCA2 −/− mean pIC50” value in test [1] (DLD-1 BRCA2−/− cells, 12 days) was found to be 6.7. In addition, the “POLQ PD Prolif Lumin DLD1 mean pIC50” value in test [2] (DLD-1 BRCA2 wt cells, 7 days) is given as 6.3.

Consider `CC1(Oc2ncnc3c2nc(-c2ccc(C(N)=O)cc2Cl)n3Cc2ccccc2)CC1` [Example N4, 4-(9-benzyl-6-(1-methylcyclopropoxy)-9H-purin-8-yl)-3-chlorobenzamide], for which the IC50 in test [1] (setting [3]) was 200 nM; in test [2] (setting [4]), greater than 10000 nM.

`CC1(Oc2ncnc3c2nc(-c2ccc(OCCCN4CC(O)C4)cc2Cl)n3Cc2cc(C(F)F)ccn2)CC1` [Example T452, 1-(3-(3-chloro-4-(9-((4-(difluoromethyl)pyridin-2-yl)methyl)-6-(1-methylcyclopropoxy)-9H-purin-8-yl)phenoxy)propyl)azetidin-3-ol]: the IC50 in test [1] (setting [11]) is 794 nM; in test [2] (setting [12]), greater than 10000 nM.

Regarding `CC1(Oc2ncnc3c2nc(-c2ccc(OCCCN)cc2Cl)n3Cc2ccccc2)CC1` [Example D6, 3-(4-(9-benzyl-6-(1-methylcyclopropoxy)-9H-purin-8-yl)-3-chlorophenoxy)propan-1-amine], the IC50 in test [1] (setting [3]) is 631 nM; in test [2] (setting [4]), 5010 nM.

As for `CN1CCC(COc2ccc(-c3nc4c(OC5(C)CC5)ncnc4n3Cc3ccccc3)c(Cl)c2)CC1` [Example 5, 9-Benzyl-8-(2-chloro-4-((1-methylpiperidin-4-yl)methoxy)phenyl)-6-(1-methylcyclopropoxy)-9H-purine], the results for the IC50 in test [1] (setting [3]) and in test [2] (setting [4]) were 50.1 nM and 3160 nM, respectively.

For the compound `CN(C)CCCOc1ccc(-c2nc3c(OC4(C)CC4)ncnc3n2Cc2cc(Cl)ccn2)c(F)c1` [Example T231, 3-(4-(9-((4-chloropyridin-2-yl)methyl)-6-(1-methylcyclopropoxy)-9H-purin-8-yl)-3-fluorophenoxy)-N,N-dimethylpropan-1-amine], the IC50 in test [1] (setting [5]) was 251 nM; in test [2] (setting [6]) it was greater than 10000 nM.
